Patent publication US20220313693A1, “METHODS OF TREATING HIV IN PEDIATRIC PATIENTS WITH RILPIVIRINE” (priority 2019, published 2022)
Like-named read-outs stand apart in the source and are kept apart here.

How the values were obtained:
[1] = Adults, pooled ECHO/THRIVE, RPV 25 mg qd, N=44; cited from earlier work
clinical = conditions: human, in vivo, 25 mg, mean ± SD, RPV 25 mg qd multiple dose; for AUC(0-t): AUC24h
[2] = Intensive PK assessment of RPV at steady state, Phase II open-label trial in ARV-naive HIV-1 infected adolescents and children; conditions: RPV 25 mg qd multiple dose
[3] = adult and pediatric participants receiving abacavir in clinical studies; cited from earlier work
[4] = Adolescents (Cohort 1, ≥12 to <18 years), N=23
[5] = Children ≥6-<12 years (Cohort 2), all bodyweights, N=10, preliminary analysis
[6] = Children ≥6-<12 years (Cohort 2), ≥25 kg only, N=5, preliminary analysis

| Structure (SMILES) | AUC24h, mean ± SD [1] [ng·h/mL] | C0h (predose plasma concentration), mean ± SD [1] [ng/mL] | Cmax, mean ± SD [1] [ng/mL] | Cmin, mean ± SD [1] [ng/mL] | AUC(0-t) (clinical; [4]) [ng·h/mL] | AUC(0-t) (clinical; [5]) [ng·h/mL] | AUC(0-t) (clinical; [6]) [ng·h/mL] | Cmax (clinical; [5]) [ng/mL] | Cmax (clinical; [6]) [ng/mL] | C0h (predose plasma concentration), mean ± SD [2, 4] [ng/mL] | Cmin, mean ± SD [2, 4] [ng/mL] | tmax, median [range] [2, 4] | C0h (predose plasma concentration), mean ± SD [2, 5] [ng/mL] | Cmin, mean ± SD [2, 5] [ng/mL] | C0h (predose plasma concentration), mean ± SD [2, 6] [ng/mL] | Cmin, mean ± SD [2, 6] [ng/mL] | tmax, median [range] [2, 6] | Participants with hypersensitivity reactions [3] |
| --- | --- | --- | --- | --- | --- | --- | --- | --- | --- | --- | --- | --- | --- | --- | --- | --- | --- | --- |
| Cc1cc(/C=C/C#N)cc(C)c1Nc1ccnc(Nc2ccc(C#N)cc2)n1 [RPV, Rilpivirine] | 2005 ± 970 | 67.6 ± 39.0 | 134 ± 72.0 | 53.7 ± 28.3 | 1870 ± 717 | 3020 ± 1610 | 2450 ± 735 | 182 ± 110 | 136 ± 46.1 | 80.8 ± 40.4 | 57.1 ± 26.3 | 5.00 (2.00-9.03) h | 118 ± 61.5 | 77 ± 38.4 | 104 ± 57 | 74 ± 29.7 | 4.00 (1.97-9.00) h |  |
| Nc1nc(NC2CC2)c2ncn([C@H]3C=C[C@@H](CO)C3)c2n1 [abacavir] |  |  |  |  |  |  |  |  |  |  |  |  |  |  |  |  |  | approximately 5% |
